Usually IC90 stands for the concentration at which the effect reaches the 90% level. Lower therefore signals an effect from little substance.

IC90 and IC50 data for eleven compounds are collected here from patent US8309685B2 (Celgene Avilomics Research, Inc., priority 2007, dated 2012).

The test system of assay [1] is HCV RNA replicon in cell line ET (luc-ubi-neo/ET), human Huh7 hepatoma. The experiment in a line: Method A: HCV RNA replicon antiviral assay (luciferase, ET cell line). It is filed as cell-based, Hepatitis C virus. Particulars: Hepatitis C virus, Huh-7, assay described in Example 22; for IC50: read-out: Replicon (IC50). As for the experimental part: The compounds were assayed to evaluate the antiviral activity and cytotoxicity of compounds in vitro using HCV RNA replicons. This assay used the cell line ET (luc-ubi-neo/ET), which is a human Huh7 hepatoma cell line that contains an HCV RNA replicon with a stable luciferase (Luc) reporter and three cell culture-adaptive mutations. […]
The ET cell line was grown in Dulbecco's modified essential media (DMEM), 10% fetal bovine serum (FBS), 1% penicillin-streptomycin (pen-strep), 1% glutamine, 250 μg/ml G418 in a 5% CO2 incubator at 37° C. All cell culture reagents were obtained from Mediatech (Manassas, Va.). Cells were trypsinized (1% trypsin:EDTA) and plated out at 5×10^3 cells/well in white 96-well assay plates (Costar) dedicated to cell number (cytotoxicity) or antiviral activity assessments. Drugs were added at six 3-fold concentrations each and the assay was run in DMEM, 5% FBS, 1% pen-strep, 1% glutamine. Human interferon alpha-2b (PBL Biolabs, New Brunswick, N.J.) was included in each run as a positive control compound. Cells were processed 72 hr post drug addition when the cells are still subconfluent. Antiviral activity was measured by analyzing replicon-derived luciferase activity using the Steady-Glo Luciferase Assay System (Promega, Madison, Wis.) according to manufacturer's instruction. The number of cells in each well was determined by CytoTox-1 reagent (Promega). Compound profile was derived by calculating applicable EC50 (effective concentration inhibiting virus replication by 50%), EC90 (effective concentration inhibiting virus replication by 90%), IC50 (concentration decreasing cell viability by 50%) and SI50 (selective index: […]) values.
A general note: Replicon systems follow genome replication, usually without infectious particles.

Assay [2] has as its target T1, wild type HCV NS3/4A 1b protease enzyme (Hepatitis C virus genotype 1b, UniProt P26663).
T1 construct: 10× stocks of NS3/4A protease enzyme from Bioenza (Mountain View, Calif.); purchased Bioenza (Mountain View, Calif.)
The experiment in a line: HCV Protease FRET Assay (IC50_APP), wild type. Format: biochemical. Particulars: read-out: IC50_APP, WT; apparent IC50, wild type NS3/4A 1b. How it is done: (§1) HCV Protease FRET Assay for WT and Mutated NS3/4A 1b Enzymes (IC50—APP).
(§2) The following protocol was used to generate “apparent” IC50 (IC50—APP) values as depicted in Table 6, below. […] 5 μL of each enzyme were added to Corning (#3575) 384-well, black, microtiter plates (Corning, N.Y.) after spotting a 0.5 μL volume of 50% DMSO and serially diluted compounds prepared in 50% DMSO. Protease reactions were immediately started after enzyme addition with the addition of 45 μL of the FRET substrate and monitored for 60-90 minutes at λex485/λem520 in a Synergy^4 plate reader from BioTek (Winooski, Vt.). At the conclusion of each assay, progress curves from each well were examined for linear reaction kinetics and fit statistics (R^2, 95% confidence intervals, absolute sum of squares).
(§3) The compound numbers correspond to the compound numbers in Table 3. […] ;

Assay [3] has as its target T2, A156T mutant of the HCV NS3/4A 1b protease enzyme (Hepatitis C virus genotype 1b, UniProt P26663, A1182T).
T2 construct: 10× stocks of NS3/4A protease enzyme from Bioenza (Mountain View, Calif.); purchased Bioenza (Mountain View, Calif.)
The experiment in a line: HCV Protease FRET Assay (IC50_APP), A156T mutant. Format: biochemical. Particulars: apparent IC50, A156T mutant; read-out: IC50_APP, HCV A156T. How it is done:
as §1, §2, §3

For assay [4], the target named is T3, D168A mutant of the HCV NS3/4A 1b protease enzyme (Hepatitis C virus genotype 1b, UniProt P26663, D1194A).
T3 construct: 10× stocks of NS3/4A protease enzyme from Bioenza (Mountain View, Calif.); purchased Bioenza (Mountain View, Calif.)
The experiment in a line: HCV Protease FRET Assay (IC50_APP), D168A mutant. The note with it: apparent IC50, D168A mutant; read-out: IC50_APP, HCV D168A. It is filed as biochemical. How it is done: as §1, §2, §3

In turn, `C=CC(=O)N[C@H](C(=O)N1C[C@H](Oc2cc(-c3ccccc3)nc3cc(OC)ccc23)C[C@H]1C(=O)N[C@]1(C(=O)NS(=O)(=O)c2ccccc2)C[C@H]1C=C)C(C)C` [Compound I-60, (2S,4R)-1-((S)-2-acrylamido-3-methylbutanoyl)-N-((1R,2S)-1-(phenylylsulfonylcarbamoyl)-2-vinylcyclopropyl)-4-(7-methoxy-2-phenylquinolin-4-yloxy)pyrrolidine-2-carboxamide] displayed an IC90 in assay [1] of 100 to 1000 nM. Besides, the IC50 is 10 to 100 nM in assay [1], 10 to 100 nM in assay [2], 100 to 1000 nM in assay [3] and 1000 to 10000 nM in assay [4].

In turn, `C#Cc1ccc(S(=O)(=O)NC(=O)[C@@]2(NC(=O)[C@@H]3C[C@@H](Oc4cc(-c5ccccc5)nc5cc(OC)ccc45)CN3C(=O)[C@H](CNC(=O)C=C)NC(=O)OC(C)(C)C)C[C@H]2C=C)cc1` [Compound I-61, t-butyl-(S)-3-acrylamido-1-((2S,4R)-2-((1R,2S)-1-(4-ethynylphenylsulfonylcarbamoyl)-2-vinylcyclopropylcarbamoyl)-4-(7-methoxy-2-phenylquinolin-4-yloxy)pyrrolidin-1-yl)-1-oxopropan-2-ylcarbamate] displayed an IC90 in assay [1] of 1000 to 10000 nM. Further, the IC50 in assay [1] was in the range of 100 to 1000 nM; in assay [2], 10 to 100 nM; in assay [3], 1000 to 10000 nM; in assay [4] it was 1000 to 10000 nM.

In assay [1], `C=C[C@@H]1C[C@]1(NC(=O)[C@@H]1CC(Oc2cc(-c3ccccc3)nc3cc(OC)ccc23)CN1C(=O)OC(C)(C)C)C(=O)NS(=O)(=O)C1CC1` (stereo partly shown) [Compound I-62] came in with an IC90 of 100 to 1000 nM. For the same compound, the IC50 was 10 to 100 nM in assay [1], less than 10 nM in assay [2], 100 to 1000 nM in assay [3] and 1000 to 10000 nM in assay [4].

In assay [1], `C=CC(=O)O[C@H](C)[C@H](NC(=O)OC(C)(C)C)C(=O)N1C[C@H](Oc2cc(-c3ccccc3)nc3cc(OC)ccc23)C[C@H]1C(=O)N[C@]1(C(=O)NS(=O)(=O)C2CC2)C[C@H]1C=C` [Compound I-64, t-butyl-(2S,3R)-3-acryloxy-1-((2S,4R)-2-((1R,2S)-1-(cyclopropylsulfonylcarbamoyl)-2-vinylcyclopropylcarbamoyl)-4-(7-methoxy-2-phenylquinolin-4-yloxy)pyrrolidin-1-yl)-1-oxobutan-2-ylcarbamate] registered an IC90 of 100 to 1000 nM. In addition, the IC50 was 100 to 1000 nM in assay [1], less than 10 nM in assay [2], 10 to 100 nM in assay [3] and 10 to 100 nM in assay [4].

In assay [1], `C=CC(=O)N[C@@H](C(=O)N1C[C@H](Oc2cc(-c3ccccc3)nc3cc(OC)ccc23)C[C@H]1C(=O)N[C@]1(C(=O)NS(=O)(=O)C2CC2)C[C@H]1C=C)c1ccccc1` [Compound I-66, (2S,4R)-1-((R)-2-acrylamido-phenylacetyl)-N-((1R,2S)-1-(cyclopropylsulfonylcarbamoyl)-2-vinylcyclopropyl)-4-(7-methoxy-2-phenylquinolin-4-yloxy)pyrrolidine-2-carboxamide] gave an IC90 of 100 to 1000 nM. The IC50 was 10 to 100 nM in assay [1], less than 10 nM in assay [2], 100 to 1000 nM in assay [3] and 100 to 1000 nM in assay [4].

`C=C[C@@H]1C[C@]1(NC(=O)[C@@H]1C[C@@H](Oc2cc(-c3ccccc3)nc3cc(OC)ccc23)CN1C(=O)[C@H](CCC(=O)N[C@@H]1C(=O)O[C@@H]1C)NC(=O)OC(C)(C)C)C(=O)NS(=O)(=O)C1CC1` [Compound I-67, t-butyl-(2S)-1-((2S,4R)-2-((1R,2S)-1-(cyclopropylsulfonylcarbamoyl)-2-vinylcyclopropylcarbamoyl)-4-(7-methoxy-2-phenylquinolin-4-yloxy)pyrrolidin-1-yl)-5-((2R,3S)-2-methyl-4-oxooxetan-3-ylamino)-1,5-dioxopentan-2-ylcarbamate] returned an IC90 in assay [1] of 100 to 1000 nM. In addition, the IC50 was 10 to 100 nM in assay [1], less than 10 nM in assay [2], less than 10 nM in assay [3] and less than 10 nM in assay [4].

For `C=C[C@@H]1C[C@]1(NC(=O)[C@@H]1C[C@@H](Oc2cc(-c3ccccc3)nc3cc(OC)ccc23)CN1C(=O)[C@H](CCC(=O)C=C(C)C)NC(=O)OC(C)(C)C)C(=O)NS(=O)(=O)C1CC1` [Compound I-68, tert-butyl-(S)-1-((2S,4R)-2-((1R,2S)-1-(cyclopropylsulfonylcarbamoyl)-2-vinylcyclopropylcarbamoyl)-4-(7-methoxy-2-phenylquinolin-4-yloxy)pyrrolidin-1-yl)-7-methyl-1,5-dioxooct-6-en-2-ylcarbamate], in assay [1], the IC90 is 10 to 100 nM. Also, the IC50 is less than 10 nM in assay [1], less than 10 nM in assay [2], 100 to 1000 nM in assay [3] and 100 to 1000 nM in assay [4].

For `C=C[C@@H]1C[C@]1(NC(=O)[C@@H]1C[C@@H](Oc2cc(-c3ccccc3)nc3cc(OC)ccc23)CN1C(=O)[C@H](CCC(=O)N1CCC1=O)NC(=O)OC(C)(C)C)C(=O)NS(=O)(=O)C1CC1` [Compound I-70, t-butyl-(2S)-1-((2S,4R)-2-((1R,2S)-1-(cyclopropylsulfonylcarbamoyl)-2-vinylcyclopropylcarbamoyl)-4-(7-methoxy-2-phenylquinolin-4-yloxy)pyrrolidin-1-yl)-5-(2-oxoazetidinyl)-1,5-dioxopentan-2-ylcarbamate], in assay [1], the IC90 lay in the range of 100 to 1000 nM. Also, the IC50 is 100 to 1000 nM in assay [1], less than 10 nM in assay [2], less than 10 nM in assay [3] and less than 10 nM in assay [4].

Consider `C#CCOC(=O)N[C@@H](CN(C)C(=O)CCCl)C(=O)N1C[C@H](Oc2cc(-c3ccccc3)nc3cc(OC)ccc23)C[C@H]1C(=O)N[C@]1(C(=O)NS(=O)(=O)C2CC2)C[C@H]1C=C` [Compound I-71], for which the IC90 in assay [1] lay within 100 to 1000 nM. Besides, the IC50 in assay [1] is 100 to 1000 nM; in assay [2], less than 10 nM; in assay [3], 100 to 1000 nM; in assay [4], 100 to 1000 nM.

On to `C=CC(=O)N(C)C[C@H](NC(=O)OC1CCCC1)C(=O)N1C[C@H](Oc2cc(-c3ccccc3)nc3cc(OC)ccc23)C[C@H]1C(=O)N[C@]1(C(=O)NS(=O)(=O)C2CC2)C[C@H]1C=C` [Compound I-72], for which, in assay [1], the IC90 lay in the range of 10 to 100 nM. Moreover, the IC50 was less than 10 nM in assay [1], less than 10 nM in assay [2], 100 to 1000 nM in assay [3] and 100 to 1000 nM in assay [4].

The compound `C=CC(=O)N(C)C[C@H](NC(=O)OC(C)(C)C)C(=O)N1C[C@H](Oc2nccc3ccc(Br)cc23)C[C@H]1C(=O)N[C@]1(C(=O)NS(=O)(=O)C2CC2)C[C@H]1C=C` [Compound I-84, tert-butyl-(S)-1-((2S,4R)-4-(7-bromoisoquinolin-1-yloxy)-2-((1R,2S)-1-(cyclopropylsulfonylcarbamoyl)-2-vinylcyclopropylcarbamoyl)pyrrolidin-1-yl)-3-(N-methylacrylamido)-1-oxopropan-2-ylcarbamate] returned an IC90 in assay [1] of 100 to 1000 nM. Besides, the IC50 in assay [1] was 10 to 100 nM; in assay [2], less than 10 nM; in assay [3], 100 to 1000 nM; in assay [4], 100 to 1000 nM.
